pEC50, pIC50: −log10 of the molar value. Where “and” joins values, the source holds several entries; their conditions need not be identical. Identical values can stand only once. Calls of active or inactive are those of the source.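 How the source made its calls: active means compounds giving half or more protection of infected cells from virus-caused growth loss, again on retest; inactive means the rest.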

The assay has as its system CEM cells HIV-1 protection, formazan growth assay. Nature of the assay: NCI AIDS Antiviral Assay. As to conditions: for pIC50: measured here: growth of uninfected CEM cells. In outline: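 Human CEM cells, uninfected and HIV-1-infected, exposed to five drug concentrations; growth measured by soluble formazan assay and scored as percent protection from infection, with protecting compounds retested.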

For the compound `Cc1cc(NS(=O)(=O)c2ccc(Nc3c4ccccc4nc4c(C(=O)Nc5ccc(S(=O)(=O)N=C(N)N)cc5)cccc34)cc2)no1`, the pEC50 is 4.73 and the pIC50 was 4.27. For `CCCOc1cc2c(c3oc(=O)cc(CCC)c13)C(=O)[C@H](C)[C@@H](C)O2`, the pEC50 is below 3.70 and the negative logarithm of the IC50 (pIC50) is 5.26.

As for `O=[N+]([O-])c1ccc2nc3n(c2c1)C(c1c(F)cccc1F)SC3` (stereo unspecified), the pEC50 was below 3.70 and the pIC50 was below 3.70.

For `CCOC1CCC2C(CCC(/C=C/c3ccc(O)c4ncccc34)N2C)C1` (stereo unspecified), the pEC50 was below 4.55 and the pIC50 was 5.31. Turning to `O=C1CC(C[C@H](O)C2CCCCC2O)CC(=O)N1Cc1ccccc1` (stereo partly specified), the pEC50 is below 3.70 and the pIC50 was below 3.70. Turning to `O=C1C=C[C@@]23C=Cc4ccccc4C2CC(O)C1C3` (stereo partly specified), the pEC50 is below 3.61 and the pIC50 was 3.87. On the same counts, the results for `C=CCNc1nc2c(N)ncnc2s1` are below 3.70 and below 3.70. In the case of `COc1ccc(C(=O)C/C(=N/NC(N)=S)C(=O)Nc2ccccc2)cc1`, the pEC50 was below 4.60 and the negative logarithm of the IC50 (pIC50) was below 4.60.

`COC1OC2=CCC3C(=O)NC(=O)C3C2[C@H](OCc2ccccc2)C1OCc1ccccc1` (stereo partly specified): the result was inactive. On to `C=C1CCCCCCCCCCC12SCCC2CCCCSC` (stereo unspecified), for which the pEC50 was below 3.70 and the pIC50 is 3.92. On to `O=c1[nH]nc(Cc2ccccc2)n1CCO`, for which the outcome was inactive. For `NC1=NN(c2ccccc2)C(=O)C1/C(=N\NC(=O)c1cc2ccccc2cc1O)C(=O)Nc1ccc(Cl)cc1` (stereo unspecified), the pEC50 was below 5.16 and the pIC50 was below 5.16. As for `Cc1cn(C2CCC(/C=N\O)O2)c(=O)[nH]c1=O` (stereo unspecified), the pEC50 is below 3.70 and the negative-log IC50 (pIC50) was below 3.70.

Turning to `c1ccc(CCN2CCc3[nH]c4ccccc4c3C2)cc1`, the pEC50 was below 3.70 and the pIC50 was 4.40. Consider `CCOP(=O)(OCC)/C(C#N)=C/c1cccn1C`, for which the pEC50 was 4.33 and the pIC50 was 3.27.

For the compound `O=C1OC2(c3ccccc31)c1ccc(O)c(O)c1Oc1c2ccc(O)c1O`, the pEC50 is below 3.70; the pIC50 is 4.44 and 4.48 and 5.02. With `O=C1c2ccccc2C(=O)N1/N=C\c1ccc(O)cc1`, the pEC50 was below 3.87 and the pIC50 is below 3.87. With `CC1SC(c2ccccc2)N(Nc2c3ccccc3nc3ccccc23)C1=O` (stereo unspecified), the pEC50 was below 4.17 and the pIC50 was below 4.17. `CCC1(c2cccc(C)c2)Oc2ccccc2-n2cccc2C1=O` (stereo unspecified): the negative logarithm of the EC50 (pEC50) is 6.27 and the pIC50 is 3.90. Take `N#CC12C(=O)N3C(=NC(c4ccco4)NC3c3ccco3)C1(C#N)C(c1ccco1)NC1=C2CCCC1` (stereo unspecified): the pEC50 is below 3.70 and the pIC50 was below 3.70. Take `C[N+](C)(C)CCC[N+](C)(C)CCN1C(=O)c2cccc3cccc(c23)C1=O`: the pEC50 was below 3.70 and the negative logarithm of the IC50 (pIC50) was below 3.70. In the case of `CC(Cl)c1nc2c(c(=O)[nH]1)C1CCCCCCCN1C(=S)N2C` (stereo unspecified), the pEC50 was below 3.70 and the pIC50 is 4.91. On the same counts, the results for `CCN(CC)CCN1C(=O)C2C3C=CC(C2C1=O)C1C2C(=O)N(CCN(CC)CC)C(=O)C2C31` (stereo unspecified) are below 3.70 and below 3.70.

Regarding `C=C[C@@H](OCOCC[Si](C)(C)C)[C@@H](CC)OC(CCCOC(=O)C(C)(C)C)OC` (stereo partly specified), the pEC50 was below 3.70 and the pIC50 is below 3.70. For the compound `NC(=O)c1c([N+](=O)[O-])ncn1C1OC(CO)C(F)C1O` (stereo unspecified), the pEC50 is below 3.70 and the pIC50 is below 3.70.

`CC(C)=CC1CCc2ccccc2N1S(=O)(=O)c1ccc(C)cc1` (stereo unspecified): the pEC50 was below 4.60 and the negative logarithm of the IC50 (pIC50) is 5.88. For the compound `COC(=O)/C(C#N)=C1\NC(=O)c2ccccc21`, the pEC50 is below 4.08 and the pIC50 is below 4.08. Take `CC1=C(C(=O)O)CCC2(C)c3ccc(C(C)C)c(O)c3CCC12` (stereo unspecified): the pEC50 was below 3.70 and the negative-log IC50 (pIC50) is 4.33. As to `CC(=O)OC1C(O[C@H]2CC[C@]34O[C@]35CC[C@]3(C)C(C6(C)CC[C@@H](C(C)(C)O)O6)[C@@H](O)CC3(C)[C@@H]5CC(OC3OC(CO)C(O)C(O)C3O)C4C2(C)C)OCC(O)C1O` (stereo partly specified), the pEC50 is 4.17 and the pIC50 is 3.52. With `CN1CCCC(C#N)(c2ccccc2)CC1` (stereo unspecified), the result was inactive. For `CC(=O)CC1CCC(=O)/C=C/C(=O)OC(CC(C)=O)CCC(=O)/C=C/C(=O)O1` (stereo unspecified), the pEC50 is below 3.70 and the pIC50 is 5.72. With `NC(=O)C(=CNC(=S)c1ccncc1)C(N)=O`, the pEC50 was below 3.70 and the pIC50 is below 3.70. With `Cc1ccccc1S(=O)(=O)OC1NS(=O)(=O)c2ccccc21` (stereo unspecified), the pEC50 is below 3.70 and the negative-log IC50 (pIC50) was below 3.70.

Regarding `CC(C)=CC1c2[nH]c3ccccc3c2CC(C(=O)O)N1C(=O)OC(C)(C)C(Cl)(Cl)Cl` (stereo unspecified), the result was inactive. As for `O=C(NC(=O)c1cc(-c2ccccc2)n[nH]1)c1ccccc1`, the pEC50 is below 3.70 and the pIC50 was 3.91.

`COC(=O)c1ccccc1/C=C1\Cc2cc3c(cc2C1=O)CCC3`: the pEC50 was below 3.70 and the pIC50 was 4.34. As for `CC(C(N)=O)N(C)C(=O)c1cnc2ccccc2c1` (stereo unspecified), the outcome was inactive. `Cn1c(N)c(N=Nc2ccc(S(=O)(=O)Nc3nccs3)cc2)c(=O)n(C)c1=O`: the result was inactive. In the case of `O=C(O)C1=C(C(=O)O)C2CCC1C2`, the pEC50 was below 3.70 and the negative logarithm of the IC50 (pIC50) is below 3.70.

With `c1ccc2c(c1)N[C@@H]1c3[nH]c4ccccc4c3CC[C@H]21`, the pEC50 was below 3.70 and the pIC50 is 4.61. Consider `CCOC(=O)Cn1c(=O)n(C)c(=O)c2c1ncn2Cc1ccccc1`, for which the pEC50 was below 3.14 and the pIC50 was 3.37. As to `CC1(C)CC(c2c[nH]c3ccccc23)=CC2=Nc3ccccc3C21O` (stereo unspecified), the result was inactive. As for `c1ccc(OCC2CO2)c(OCC2CO2)c1` (stereo unspecified), the pEC50 was below 2.95 and the pIC50 was 5.40. Turning to `CC1C2CCC3(CCC4C5(C)CCCC4(CN(CCO)C5)C3C2)C1O` (stereo unspecified), the outcome was inactive. With `O=C1c2ccccc2S[C@@H](O)[C@@H]2CCCN12`, the result was inactive. Turning to `CC(=O)Nc1ccc(/C=C2\C(=O)NC(=S)N2/C=C(\C#N)c2ccc([N+](=O)[O-])cc2)cc1`, the pEC50 was below 3.70 and the pIC50 was 4.14. For `O=C(O)CN(CCN(CC(=O)O)CC(=O)O)CC(=O)O`, the pEC50 is below 3.70 and the pIC50 was below 3.70. In the case of `O=C1/C(=C/c2ccccc2)CCC/C1=C\c1ccc(O)c(CN2CCCCC2)c1`, the pEC50 is below 3.70 and the pIC50 is 5.93. In the case of `COc1cccc2c1C(=O)c1c(O)c3c(c(O)c1C2=O)C[C@@](O)(C(C)=O)C[C@@H]3OC1CC(N)C(O)C(C)O1` (stereo partly specified), the pEC50 was below 5.35 and the pIC50 was 8.42. For `Cc1nc2cc(N)c(Cl)cc2[nH]1`, the pEC50 was below 3.70 and the pIC50 is below 3.70. Consider `CC(=O)Nc1ccc(S2=Nc3ccccc3S2)cc1` (stereo unspecified), for which the pEC50 was below 4.31 and the pIC50 is 4.79. `N#CCCN(CCC#N)c1ccc(/C=C2\CC(O)(c3ccccc3)NC2=O)cc1` (stereo unspecified): the pEC50 was below 5.15 and the pIC50 was below 5.15. For `Cc1nn(C(=O)c2c(O)cccc2Br)c(C)c1N=Nc1ccccc1`, the outcome was inactive.

As a reminder, the pEC50 is −log10 of the EC50, conventionally taken in molar units. As a reminder, the pIC50 is −log10 of the IC50, conventionally taken in molar units.

These data come from PubChem BioAssay AID179 (DTP/NCI, 2004).
